Data from PubChem BioAssay (NCI).
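Cultured in 96-well plates, cells were exposed to test compound for 48 hours across five concentrations. Here, GI50 denotes the concentration required for 50% inhibition of growth. TGI is the concentration that stops growth completely.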

Assays:
Experiment in all cases: inhibition of tumour cell growth, NCI panel, 48 h
[1] = test system: SW-620 colon
[2] = test system: COLO 205 colon
[3] = test system: HOP-62 NSCLC
[4] = test system: MALME-3M melanoma
[5] = test system: SNB-75 CNS
[6] = test system: TK-10 renal
[7] = test system: UACC-62 melanoma
[8] = test system: SK-MEL-2 melanoma
[9] = test system: A549 NSCLC
[10] = test system: OVCAR-8 ovarian
[11] = test system: HT29 colon
[12] = test system: DU-145 prostate
[13] = test system: OVCAR-3 ovarian
[14] = test system: IGROV1 ovarian
[15] = test system: NCI-H23 lung
[16] = test system: NCI/ADR-RES ovarian
[17] = test system: UO-31 renal
[18] = test system: NCI-H522 lung
[19] = test system: ACHN renal
[20] = test system: CAKI-1 renal
[21] = test system: PC-3 prostate
[22] = test system: OVCAR-4 ovarian
[23] = test system: MDA-MB-231 breast
[24] = test system: SF-539 CNS
[25] = test system: NCI-H460 lung
[26] = test system: BT-549 breast
[27] = test system: RPMI-8226 leukemia
[28] = test system: NCI-H226 lung
[29] = test system: UACC-257 melanoma
[30] = test system: MDA-MB-435
[31] = test system: HCT-116 colon
[32] = test system: SK-MEL-5 melanoma
[33] = test system: M14 melanoma
[34] = test system: LOX IMVI melanoma
[35] = test system: SR leukemia
[36] = test system: HCT-15 colon
[37] = test system: SF-268 CNS
[38] = test system: HL-60(TB) leukemia
[39] = test system: SN12C renal
[40] = test system: U251 CNS
[41] = test system: MOLT-4 leukemia
[42] = test system: K-562 leukemia
[43] = test system: HOP-92 NSCLC
[44] = test system: SK-OV-3 ovarian
[45] = test system: HCC-2998 colon
[46] = test system: KM12 colon
[47] = test system: OVCAR-5 ovarian
[48] = test system: A498 renal
[49] = test system: SF-295 CNS
[50] = test system: RXF 393 renal
[51] = test system: SNB-19 CNS
[52] = test system: 786-0 renal
[53] = test system: EKVX NSCLC
[54] = test system: CCRF-CEM leukemia
[55] = test system: SK-MEL-28 melanoma
[56] = test system: MCF7 breast
[57] = test system: T-47D breast
[58] = test system: HS 578T breast

COc1cc2c(/C=C3\C(=O)N(C)c4ccccc43)c[nH]c2cc1C
GI50 [1]: 1.68 µM
TGI [1]: > 100 µM
GI50 [2]: 1.58 µM
TGI [2]: > 100 µM
GI50 [3]: 2.23 µM
TGI [3]: 39.3 µM
GI50 [4]: 1 µM
TGI [4]: > 53.9 µM
GI50 [5]: 4.34 µM
TGI [5]: > 100 µM
GI50 [6]: 10.5 µM
TGI [6]: 70.5 µM
GI50 [7]: 1.29 µM
TGI [7]: > 100 µM
GI50 [8]: 10.2 µM
TGI [8]: > 84.1 µM
GI50 [9]: 2.39 µM
TGI [9]: > 66.8 µM
GI50 [10]: 4.14 µM
TGI [10]: 45.1 µM
GI50 [11]: 0.36 µM
GI50 [12]: 6.77 µM
TGI [12]: > 66.3 µM
GI50 [13]: 3.27 µM
TGI [13]: 9.78 µM
GI50 [14]: 7.87 µM
TGI [14]: > 69.6 µM
GI50 [15]: 5.33 µM
TGI [15]: > 67.9 µM
GI50 [16]: 0.65 µM
TGI [16]: 23.3 µM
GI50 [17]: 11.5 µM
TGI [17]: > 62 µM
GI50 [18]: 8.82 µM
TGI [18]: > 87.5 µM
GI50 [19]: 3.61 µM
TGI [19]: 55.7 µM
GI50 [20]: 2.01 µM
TGI [20]: 51.3 µM
GI50 [21]: 2.56 µM
TGI [21]: > 100 µM
GI50 [22]: > 100 µM
TGI [22]: > 100 µM
GI50 [23]: 2.05 µM
TGI [23]: > 100 µM
GI50 [24]: 4.2 µM
TGI [24]: > 31.2 µM
TGI [25]: > 37.1 µM
GI50 [26]: 7.53 µM
TGI [26]: 71.9 µM
GI50 [27]: 1.42 µM
TGI [27]: > 20.1 µM
GI50 [28]: 20.3 µM
TGI [28]: > 58.1 µM
GI50 [29]: 23.5 µM
TGI [29]: > 100 µM
GI50 [30]: 1.62 µM
TGI [30]: 12.1 µM
GI50 [31]: 0.369 µM
TGI [31]: > 41.7 µM
GI50 [32]: 2.36 µM
TGI [32]: > 40 µM
GI50 [33]: 0.541 µM
TGI [33]: > 100 µM
GI50 [34]: 0.869 µM
TGI [34]: > 47.9 µM
GI50 [35]: 2.07 µM
TGI [35]: 14.2 µM
GI50 [36]: 0.33 µM
TGI [36]: > 100 µM
GI50 [37]: 0.103 µM
TGI [37]: > 43.9 µM
GI50 [38]: 2.53 µM
TGI [38]: 84.8 µM
GI50 [39]: 2 µM
TGI [39]: > 73.5 µM
GI50 [40]: 0.499 µM
TGI [40]: 29.6 µM
GI50 [41]: 5.83 µM
TGI [41]: > 64 µM
GI50 [42]: 1.68 µM
TGI [42]: > 100 µM
GI50 [43]: 15.7 µM
TGI [43]: 79.4 µM
GI50 [44]: 8.35 µM
TGI [44]: > 100 µM
GI50 [45]: 1.79 µM
TGI [45]: > 68.3 µM
GI50 [46]: 0.735 µM
TGI [46]: > 100 µM
GI50 [47]: 7.94 µM
TGI [47]: > 63.9 µM
GI50 [48]: 4.96 µM
TGI [48]: 48.9 µM
GI50 [49]: 0.374 µM
TGI [49]: 15.6 µM
GI50 [50]: 2.56 µM
TGI [50]: 69.9 µM
GI50 [51]: 4.15 µM
TGI [51]: > 100 µM
GI50 [52]: 4.43 µM
TGI [52]: > 59.6 µM
GI50 [53]: 8.81 µM
TGI [53]: > 100 µM
GI50 [54]: 0.957 µM
TGI [54]: 18.8 µM
GI50 [55]: > 22.4 µM
TGI [55]: > 100 µM
GI50 [56]: 0.12 µM
TGI [56]: > 100 µM
GI50 [57]: > 39.3 µM
TGI [57]: > 100 µM
GI50 [58]: 3.61 µM
TGI [58]: > 38.8 µM
